Data taken from ChEMBL document CHEMBL1201862, “PubChem BioAssay data set” (2004).
Calls of active or inactive are those of the source.

How the values were obtained:
Cysteine protease ATG4B = Cysteine protease ATG4B (Homo sapiens, UniProt Q9Y4P1); type: functional;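 further: Fluorescence-based dose-response confirmation assay measuring inhibition of ATG4B activity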
Phospholipase A2 = Phospholipase A2 (Homo sapiens, UniProt P04054); type: functional;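 further: confirmatory dose-response counterscreen on phospholipase A2, testing hits that came from an ultra-high-throughput screen for ATG4B inhibitors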
Chain of Phospholipase A2 (P04054 whole entry): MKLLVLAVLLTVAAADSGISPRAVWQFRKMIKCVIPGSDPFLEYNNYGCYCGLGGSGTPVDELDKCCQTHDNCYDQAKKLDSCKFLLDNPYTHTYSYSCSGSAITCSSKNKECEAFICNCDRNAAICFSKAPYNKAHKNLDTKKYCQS

Streptokinase A = target: T1, Streptokinase A (Streptococcus pyogenes serotype M1, UniProt P10520); experiment: viability-normalized secreted streptokinase activity reduction – plasminogen activation absorbance, OD405, dose response (AID 1914); type: functional, Streptococcus pyogenes M1 GAS;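 further: secreted streptokinase activity via plasminogen activation per viability signal from cell pellet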
T1 sequence (P10520 whole entry): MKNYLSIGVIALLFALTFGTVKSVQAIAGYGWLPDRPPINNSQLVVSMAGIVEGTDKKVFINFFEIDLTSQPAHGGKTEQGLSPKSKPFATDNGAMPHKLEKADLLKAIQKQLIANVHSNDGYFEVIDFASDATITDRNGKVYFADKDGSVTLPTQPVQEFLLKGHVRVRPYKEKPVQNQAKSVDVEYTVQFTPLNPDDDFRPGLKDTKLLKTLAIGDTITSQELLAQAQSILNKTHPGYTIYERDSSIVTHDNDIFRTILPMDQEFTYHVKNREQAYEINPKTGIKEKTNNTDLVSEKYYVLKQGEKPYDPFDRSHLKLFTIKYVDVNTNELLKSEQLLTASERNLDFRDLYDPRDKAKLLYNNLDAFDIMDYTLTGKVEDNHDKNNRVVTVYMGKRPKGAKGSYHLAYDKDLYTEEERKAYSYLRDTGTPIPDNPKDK

Streptococcus = experiment: GAS UMAA2166 growth inhibition – luminescence, BacTiterGlo, counter-screen for streptokinase expression inhibitor project, dose response (AID 1915); type: functional, organism-based;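 further: potency for reduction of bacterial viability or growth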
[1] = test system: Streptococcus sp. 'group A'; experiment: Streptococcus pyogenes SK(-)GAS viability under kanamycin – luminescence, BacTiterGlo, confirmation, counter-screen for streptokinase expression inhibitor project, dose response (AID 1900); type: functional, organism-based
Caspase-7 = Caspase-7 (Homo sapiens, UniProt P55210); experiment: caspase-7 enzyme inhibition, selectivity check – biochemical, DEVD-R110 fluorescence, cherry-pick, selectivity assay for caspase-6 inhibitor project, dose response (AID 743295); type: functional
Chain of Caspase-7 (P55210 24-198 limits assumed): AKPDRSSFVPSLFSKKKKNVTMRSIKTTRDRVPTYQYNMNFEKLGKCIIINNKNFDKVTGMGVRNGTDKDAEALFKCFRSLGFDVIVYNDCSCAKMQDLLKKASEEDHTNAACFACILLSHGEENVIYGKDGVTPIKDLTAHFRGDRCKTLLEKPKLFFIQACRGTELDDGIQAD
Chain of Caspase-7 (P55210 207-303 limits assumed): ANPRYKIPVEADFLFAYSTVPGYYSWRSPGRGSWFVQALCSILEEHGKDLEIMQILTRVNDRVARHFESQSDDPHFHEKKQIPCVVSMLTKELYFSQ

[2] = target: T2, Sentrin-specific protease 8 (Homo sapiens, UniProt Q96LD8); type: functional
T2 sequence (Q96LD8 whole entry): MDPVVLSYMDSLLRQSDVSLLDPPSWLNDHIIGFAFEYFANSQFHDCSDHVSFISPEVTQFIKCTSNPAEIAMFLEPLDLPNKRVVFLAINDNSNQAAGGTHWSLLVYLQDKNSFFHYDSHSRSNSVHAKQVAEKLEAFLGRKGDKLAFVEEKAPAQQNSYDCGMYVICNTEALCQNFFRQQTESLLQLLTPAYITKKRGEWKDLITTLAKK

Caspase-6 = target: T3, Caspase-6 (Homo sapiens, UniProt P55212); experiment: inhibition of CASP6 peptide cleavage – biochemical, VEID-R110 fluorescence, cherry-pick, dose response (AID 720632)
T3 sequence (P55212 whole entry): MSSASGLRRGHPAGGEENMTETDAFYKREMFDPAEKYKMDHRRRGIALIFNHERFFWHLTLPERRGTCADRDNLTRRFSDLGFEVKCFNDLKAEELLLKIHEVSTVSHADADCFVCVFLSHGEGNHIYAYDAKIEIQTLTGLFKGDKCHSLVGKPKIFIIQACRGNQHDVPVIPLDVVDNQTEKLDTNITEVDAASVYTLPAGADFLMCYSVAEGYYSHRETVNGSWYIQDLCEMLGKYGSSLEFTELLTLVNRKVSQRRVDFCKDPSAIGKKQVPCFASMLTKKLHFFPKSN

[3] = target: T4, Microphthalmia-associated transcription factor (Homo sapiens, UniProt O75030); experiment: reducers of TRPM1 reporter luminescence, concentration series – cell-based, SK-MEL-5, cherry-picked, set 3, MITF inhibitor project, dose response (AID 493073); type: functional;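 further: SK-MEL-5 melanoma cells with luciferase driven by the MITF target TRPM1 promoter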
T4 sequence (O75030 whole entry): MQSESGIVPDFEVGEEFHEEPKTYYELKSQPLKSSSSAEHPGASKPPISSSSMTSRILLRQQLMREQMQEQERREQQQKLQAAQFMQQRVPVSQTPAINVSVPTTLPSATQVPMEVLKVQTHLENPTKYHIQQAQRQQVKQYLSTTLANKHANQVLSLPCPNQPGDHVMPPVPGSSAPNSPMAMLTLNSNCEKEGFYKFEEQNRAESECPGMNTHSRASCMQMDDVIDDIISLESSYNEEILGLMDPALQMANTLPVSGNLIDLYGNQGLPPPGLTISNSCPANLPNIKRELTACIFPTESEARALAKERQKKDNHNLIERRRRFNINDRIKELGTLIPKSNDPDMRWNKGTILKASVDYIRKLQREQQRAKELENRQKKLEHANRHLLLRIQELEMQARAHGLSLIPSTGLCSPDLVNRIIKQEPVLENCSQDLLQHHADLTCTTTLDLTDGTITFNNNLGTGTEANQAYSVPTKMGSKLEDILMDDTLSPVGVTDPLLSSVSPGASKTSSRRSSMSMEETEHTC

[4] = target: T2, Sentrin-specific protease 8; type: functional; remark: listed apart in the source
Caspase-9 = Caspase-9 (Homo sapiens, UniProt P55211); experiment: inhibitors of purified CASP9 protease – biochemical, fluorescence, plate reader, cherry-picked samples, selectivity assay for caspase-6 inhibitor project, dose response (AID 743293)
Chain of Caspase-9 (P55211 1-315 limits assumed): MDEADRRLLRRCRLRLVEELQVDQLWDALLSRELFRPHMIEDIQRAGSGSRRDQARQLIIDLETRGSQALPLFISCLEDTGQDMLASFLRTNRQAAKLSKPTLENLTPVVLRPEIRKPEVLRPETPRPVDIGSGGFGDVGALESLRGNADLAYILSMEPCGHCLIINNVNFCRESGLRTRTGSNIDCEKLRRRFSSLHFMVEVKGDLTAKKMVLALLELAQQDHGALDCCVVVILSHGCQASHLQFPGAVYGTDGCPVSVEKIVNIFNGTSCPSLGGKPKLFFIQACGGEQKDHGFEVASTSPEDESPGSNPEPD
Chain of Caspase-9 (P55211 331-416 limits assumed): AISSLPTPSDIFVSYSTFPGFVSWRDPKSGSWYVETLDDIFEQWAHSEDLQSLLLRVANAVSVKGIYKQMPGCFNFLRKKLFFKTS

[5] = target: Apoptotic protease-activating factor 1 (Homo sapiens, UniProt O14727); type: functional
Chain of Apoptotic protease-activating factor 1 (O14727 whole entry): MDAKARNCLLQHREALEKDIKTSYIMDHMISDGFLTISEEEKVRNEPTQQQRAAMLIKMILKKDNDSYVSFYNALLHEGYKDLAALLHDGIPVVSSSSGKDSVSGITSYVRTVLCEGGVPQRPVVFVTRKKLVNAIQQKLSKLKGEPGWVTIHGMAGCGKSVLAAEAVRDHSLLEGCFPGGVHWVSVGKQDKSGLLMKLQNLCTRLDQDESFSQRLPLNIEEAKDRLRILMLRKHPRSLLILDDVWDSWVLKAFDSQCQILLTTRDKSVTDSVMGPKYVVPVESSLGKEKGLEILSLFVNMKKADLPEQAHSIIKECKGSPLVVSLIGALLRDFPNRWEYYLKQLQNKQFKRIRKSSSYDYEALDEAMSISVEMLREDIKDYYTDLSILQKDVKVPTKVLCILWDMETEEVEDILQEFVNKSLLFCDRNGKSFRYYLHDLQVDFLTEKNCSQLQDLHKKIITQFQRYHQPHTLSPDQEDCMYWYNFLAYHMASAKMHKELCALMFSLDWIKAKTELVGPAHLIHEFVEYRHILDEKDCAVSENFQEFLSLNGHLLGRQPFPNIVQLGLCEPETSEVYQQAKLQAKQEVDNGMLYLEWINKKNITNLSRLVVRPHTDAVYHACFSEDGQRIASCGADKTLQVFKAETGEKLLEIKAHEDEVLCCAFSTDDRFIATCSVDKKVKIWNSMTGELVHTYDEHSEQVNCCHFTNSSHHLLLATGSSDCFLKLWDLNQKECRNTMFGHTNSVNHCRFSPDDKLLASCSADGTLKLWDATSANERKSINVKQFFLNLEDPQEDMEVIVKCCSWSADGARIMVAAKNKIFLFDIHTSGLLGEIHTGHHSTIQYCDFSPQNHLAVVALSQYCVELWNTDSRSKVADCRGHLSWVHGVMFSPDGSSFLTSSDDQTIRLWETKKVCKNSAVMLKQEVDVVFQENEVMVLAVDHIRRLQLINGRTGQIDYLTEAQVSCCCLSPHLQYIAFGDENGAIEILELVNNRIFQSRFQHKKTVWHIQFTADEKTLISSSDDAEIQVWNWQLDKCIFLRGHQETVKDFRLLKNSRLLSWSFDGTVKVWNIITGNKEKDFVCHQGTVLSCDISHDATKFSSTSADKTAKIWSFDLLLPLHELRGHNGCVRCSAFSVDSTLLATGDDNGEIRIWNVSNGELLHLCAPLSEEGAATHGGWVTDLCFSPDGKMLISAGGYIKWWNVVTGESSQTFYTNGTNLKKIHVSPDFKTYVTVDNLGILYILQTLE

Caspase-8 = Caspase-8 (Homo sapiens, UniProt Q14790); experiment: inhibitors of purified CASP8 protease – biochemical, Z-IETD-R110 fluorescence, cherry-picked samples, selectivity assay for caspase-6 inhibitor project, dose response (AID 743294)
Chain of Caspase-8 (Q14790 217-374 limits assumed): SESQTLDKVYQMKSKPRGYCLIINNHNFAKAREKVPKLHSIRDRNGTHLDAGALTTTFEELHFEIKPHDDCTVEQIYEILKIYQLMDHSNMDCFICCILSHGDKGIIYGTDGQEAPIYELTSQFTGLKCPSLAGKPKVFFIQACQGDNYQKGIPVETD
Chain of Caspase-8 (Q14790 385-479 limits assumed): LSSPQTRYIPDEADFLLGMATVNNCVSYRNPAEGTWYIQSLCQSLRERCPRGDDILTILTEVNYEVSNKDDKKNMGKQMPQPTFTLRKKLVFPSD

Candida albicans [6] = experiment: fluconazole-resistant Candida strain growth inhibitors – CaCi-8 strain, dry powder, set 4, dose response (AID 488950); type: functional, organism-based
Candida albicans [7] = experiment: C. albicans growth inhibition with fluconazole – CaCi-2 strain, Alamar Blue, dry powder, set 4, dose response (AID 488943); type: functional, organism-based
Candida albicans [8] = experiment: Candida growth inhibition combined with fluconazole – CaCi-2 strain, Alamar Blue, dry powder, set 3, dose response (AID 488907); type: functional, organism-based

Chain of Cysteine protease ATG4B (Q9Y4P1 whole entry): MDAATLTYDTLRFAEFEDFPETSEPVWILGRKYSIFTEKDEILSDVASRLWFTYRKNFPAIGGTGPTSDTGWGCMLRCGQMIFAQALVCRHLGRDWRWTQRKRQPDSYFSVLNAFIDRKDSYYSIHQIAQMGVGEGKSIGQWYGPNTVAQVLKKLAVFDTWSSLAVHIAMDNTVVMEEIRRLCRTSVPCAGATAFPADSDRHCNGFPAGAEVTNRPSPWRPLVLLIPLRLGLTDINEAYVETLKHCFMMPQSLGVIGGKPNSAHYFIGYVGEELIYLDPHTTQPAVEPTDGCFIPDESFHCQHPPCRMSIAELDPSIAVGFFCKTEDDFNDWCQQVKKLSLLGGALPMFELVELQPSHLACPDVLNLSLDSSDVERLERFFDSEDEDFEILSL

CC(C)c1ccccc1OCC(=O)NC1CCCc2ccccc21 (stereo unspecified)
IC50 (Cysteine protease ATG4B): 12.2 µM (active) | IC50 (Phospholipase A2): 9.38 µM (active) | EC50 (Streptokinase A): 18.5 µM (active) | EC50 (Streptococcus): > 150 µM (not active) | EC50 [1]: 16.3 µM (active)

Oc1cc(NCCN2CCOCC2)cc2cccnc12
AC50 (Caspase-7): 3.53 µM (active) | IC50 [2]: 4.63 µM (active) | AC50 (Caspase-6): 3.39 µM (active) | AC50 [3]: 25.9 µM (active) | IC50 [4]: 2.68 µM (active) | AC50 (Caspase-9): 15.9 µM (active) | IC50 [5]: 8.53 µM (active) | AC50 (Caspase-8): 17.6 µM (active)

O=C(c1ccc(Cl)cc1)N1CCN(c2nc3ccccc3o2)CC1
AC50 (Candida albicans [6]): 0.176 µM (active) | AC50 (Candida albicans [7]): 14.9 µM (active) | AC50 (Candida albicans [8]): 0.465 µM (active)
